Measured values reported in PubChem BioAssay (NCI).
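Tested at 5 concentrations; 48 h exposure; 96-well plates; endpoints linearly interpolated, else capped at highest concentration. At the GI50, growth is halved. TGI: concentration producing complete growth inhibition.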

Key:
Assay in all cases: NCI-60 cell line screen, 48 h
[1] = tested on: UACC-257 melanoma
[2] = tested on: MOLT-4 leukemia
[3] = tested on: NCI-H522 lung
[4] = tested on: COLO 205 colon
[5] = tested on: UO-31 renal
[6] = tested on: SF-295 CNS
[7] = tested on: CCRF-CEM leukemia
[8] = tested on: BT-549 breast
[9] = tested on: MDA-N
[10] = tested on: MDA-MB-435
[11] = tested on: EKVX NSCLC

| SMILES | TGI [1] [µM] | TGI [2] [µM] | TGI [3] [µM] | TGI [4] [µM] | TGI [5] [µM] | TGI [6] [µM] | TGI [7] [µM] | TGI [8] [µM] | TGI [9] [µM] | TGI [10] [µM] | TGI [11] [µM] | GI50 [1] [µM] | GI50 [2] [µM] | GI50 [3] [µM] | GI50 [11] [µM] | GI50 [10] [µM] | GI50 [4] [µM] | GI50 [5] [µM] | GI50 [6] [µM] | GI50 [7] [µM] |
| --- | --- | --- | --- | --- | --- | --- | --- | --- | --- | --- | --- | --- | --- | --- | --- | --- | --- | --- | --- | --- |
| O=S(=O)(CCBr)CCBr | 13.5 | 7.75 | 3.11 | 12.7 | > 100 | 29.8 | > 30.2 | – | – | – | – | – | – | – | – | – | – | – | – | – |
| CCCCCCCCOC1C(O)C(O)C(O)C(O)C12CO2 (stereo not given) | > 100 | > 100 | > 100 | > 100 | > 100 | > 100 | > 100 | > 100 | > 100 | > 100 | – | – | – | – | – | – | – | – | – | – |
| NC(N)=N/N=C/c1nc2n(c1[N+](=O)[O-])CCS2 | 44.6 | 63.7 | > 100 | 27.4 | > 100 | 98.4 | – | > 100 | > 100 | 74.1 | 76.5 | – | – | – | – | – | – | – | – | – |
| COc1cc2c(cc1OC)C(C(CO)CO)N(CC(O)CCl)CC2 (stereo not given) | > 100 | > 100 | > 100 | > 100 | > 100 | > 100 | > 100 | – | – | – | > 100 | – | – | – | – | – | – | – | – | – |
| CCOC(=O)c1cc(-c2cc(OC)c(OC)c([N+](=O)[O-])c2)c([N+](=O)[O-])n1C | > 10 | > 10 | > 10 | – | > 10 | > 10 | > 10 | > 10 | – | 4.72 | > 10 | – | – | – | – | – | – | – | – | – |
| O=C(/C=C/c1ccc(O)cc1)c1ccc2c(c1)OCO2 | 33.6 | 52.3 | 34.2 | 32 | 38.8 | 55.5 | 5.69 | – | 86.1 | 69.5 | > 100 | – | – | – | – | – | – | – | – | – |
| O=C(O)c1cc2ccccc2c(N=Nc2ccc(S(=O)(=O)Nc3nccs3)cc2)c1O | > 100 | > 100 | > 100 | > 100 | > 100 | > 100 | > 100 | – | > 100 | > 100 | > 100 | – | – | – | – | – | – | – | – | – |
| N#CC1=C(N)n2c(s/c(=C\c3ccc(Cl)cc3)c2=O)=C(c2nc3ccccc3[nH]2)C1c1ccc(Cl)cc1 (stereo not given) | 7.84 | 3.86 | 3.68 | 6.38 | > 100 | – | 4.23 | – | – | – | 3.52 | – | – | – | – | – | – | – | – | – |
| O=C1CCC2(CC1CC(Sc1ccccc1)Sc1ccccc1)OCCO2 (stereo not given) | > 100 | 66.3 | 85.4 | 66.1 | > 100 | > 100 | > 100 | – | > 100 | > 100 | > 100 | – | – | – | – | – | – | – | – | – |
| O=CN1CCN(C(=O)c2ccc(Cl)cc2Cl)C1=S | > 100 | > 100 | 46.8 | > 100 | – | > 100 | > 100 | > 100 | > 100 | > 100 | > 100 | – | – | – | – | – | – | – | – | – |
| O=C(c1ccccc1)N1CCN(C(=S)N(C(=O)c2ccccc2)c2ccccc2)C1=S | 22.4 | – | 6.9 | 13.2 | 6.43 | 31.6 | > 25.8 | 13.7 | 17.1 | 12.2 | 19.5 | – | – | – | – | – | – | – | – | – |
| Nc1ncnc2c1nnn2C1C=CC(COS(N)(=O)=O)C1 (stereo not given) | 62.6 | > 100 | – | 17.4 | 49 | > 100 | > 100 | – | 19 | 41.3 | > 100 | – | – | – | – | – | – | – | – | – |
| OC(c1cc2ccccc2o1)c1cc2ccccc2s1 (stereo not given) | > 10 | > 10 | > 10 | > 10 | > 10 | > 10 | > 10 | – | > 10 | > 10 | > 10 | – | – | – | – | – | – | – | – | – |
| O=C(/N=C/c1c(O)c2ccccc2oc1=O)Nc1ccccc1 | > 100 | > 100 | > 100 | > 100 | > 100 | > 100 | > 100 | – | – | – | > 100 | – | – | – | – | – | – | – | – | – |
| CCCN1C(=O)CC(C)N(Cc2ccccc2Cl)C1=S (stereo not given) | 38 | > 100 | 56.6 | 32.9 | – | > 100 | > 100 | 57.5 | 60.6 | 65.9 | 93.7 | – | – | – | – | – | – | – | – | – |
| CCOC(=O)c1ccc(Nc2c3c(nc4ccccc24)CCCC3)cc1 | > 100 | > 100 | > 27.7 | > 100 | > 100 | > 100 | > 100 | > 100 | – | > 100 | > 100 | – | – | – | – | – | – | – | – | – |
| Cc1c(Cl)c2ccccc2n1S(=O)(=O)c1ccccc1 | > 100 | > 100 | 67.1 | > 100 | 85.6 | > 100 | > 100 | – | – | – | – | – | – | – | – | – | – | – | – | – |
| COc1ccc2nc3c([N+](=O)[O-])ccc4c3c(c2c1)NCCN4CCO | 1.5 | 0.806 | 1.24 | 1.74 | 1.47 | 1.71 | 2 | – | 1.64 | 1.79 | 2.97 | – | – | – | – | – | – | – | – | – |
| COc1ccc(-c2cc(=O)c3cc4c(cc3[nH]2)OCO4)cc1OC | – | > 100 | > 100 | > 100 | > 100 | > 100 | > 100 | – | – | – | > 100 | – | – | – | – | – | – | – | – | – |
| O=C(Nc1cccc(-n2ccc3c(NC(=O)c4ccccc4)nccc32)c1)Nc1cc(C(F)(F)F)cc(C(F)(F)F)c1 | 15.2 | 36 | 2.69 | 5.29 | > 50 | 30.5 | > 50 | – | – | 3.21 | > 50 | 2.45 | 1.92 | 0.83 | 2.63 | 1.23 | 1.68 | 2.4 | 1.88 | 1.76 |
| Cc1c(Cl)nc(Nc2nc3ccccc3[nH]2)nc1Cl | > 100 | > 100 | > 100 | > 100 | > 100 | > 100 | – | > 100 | > 100 | > 100 | 84.5 | – | – | – | – | – | – | – | – | – |
